Reference: US9605027B2, “Polypeptides that bound to IL-23 receptor and inhibit binding of IL-23 and cell signaling thereof” (Medical Diagnostic Laboratories, LLC, priority 2011, dated 2017)
Entries after “also recorded” stand apart in the source; their conditions may differ. Bridge positions count the residues as written; N and C are the ends. Ends that are not written are not given here.

Legend:
[1] = target: T1, IL-23R pathway in STAT3-Luc reporter DB cells (Homo sapiens, UniProt Q5VWK5); test: STAT3-Luc reporter DB cells stimulated with IL-23 cytokines; format: cell-based
Protocol: In Example 29 (above), we detailed the development of stably transfected STAT3-Luc reporter clone. […] The stably transfected STAT3-Luc reporter DB cells (0.5×10^6 cells) were cultured in 100 μl of RPMI+10% FBS. Recombinant IL-23 (Humanzyme) or isolated IL-23 (WT or W5) was added to the cells and incubated at 37° C. for 4 hours. Luciferase activity was measured using Dual-Glo luciferase assay system (Promega).
The reporter luciferase activity increased by approximately 10 folds. Isolated WT IL-23 cytokine at different concentrations (50,000, 5,000, 500 and 50 ng/ml) was added to stimulate these stable cells. […] At the concentration of 50 ng/ml, the isolated WT IL-23 cytokine stimulates the IL-23R pathway as good as the recombinant IL-23 cytokine from Humazyme.

IL-23R deletion proteins [2] = target: T2, IL-23R deletion proteins (Homo sapiens, UniProt Q5VWK5); test: Immunoprecipitation with FLAG-tagged IL-23R deletion proteins; format: binding; conditions: 200 ng, anti-FLAG M2 immunoprecipitation, Western blot
T2 construct: made in house; host or cells: 293T cells (culture media)
T2 sequence (Q5VWK5 24-200): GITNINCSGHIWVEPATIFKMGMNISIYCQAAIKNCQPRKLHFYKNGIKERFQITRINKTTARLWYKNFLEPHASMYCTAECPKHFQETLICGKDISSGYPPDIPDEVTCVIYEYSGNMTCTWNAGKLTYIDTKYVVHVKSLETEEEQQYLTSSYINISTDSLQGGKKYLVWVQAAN
Protocol: (§1) In this study, we examined which regions of IL-23R proteins were required for the binding to IL-23 and polypeptide no. 23.15-fc fusion protein. To do so, we generated a series of IL-23R deletion proteins as illustrated in the FIG. 48.
(§2) Culture media from 293T cells transfected with different FLAG-tagged IL-23R deletion constructs were incubated with 200 ng of either IL-23 or polypeptide no. 23.15-fc fusion protein, then immunoprecipitated with anti-FLAG M2 affinity gel. The immunoprecipitate was subjected to Western blotting and polypeptide no. 23.15-Fc fusion protein or IL-23 was visualized with either anti-mouse IgG or anti-hIL-12/23p40 respectively. IL-23 or polypeptide no. […] 23.15-fc fusion protein (FIG. 48).

IL-23R deletion proteins [3] = test: as above; format: binding; conditions: 200 ng, anti-FLAG M2 immunoprecipitation, Western blot
Protocol: as §1, §2

[4] = Solubility of synthetic polypeptides (precipitate in assay); format: physicochemical; conditions: under Competitive ELISA conditions
[5] = target: T1, IL-23R pathway in STAT3-Luc reporter DB cells; test: Cell-based STAT3-Luc reporter DB cell assay (DB-Luc), inhibition of IL-23; conditions: cyclic vs linear peptides
Protocol: (§3) The Cignal STAT3 reporter (SA Biosciences, CCS-9028L), designed to measure the transcriptional activity of STAT3 homodimers, was transiently transfected into the DB cells. The stably transfected STAT3-Luc reporter clone was selected using 200 ng/ml of Hygromycin B.
The stably transfected STAT3-Luc reporter DB cells (0.5×10^6) were cultured in 100 μl of RPMI+10% FBS. IL-23 was added to the cells and incubated at 37° C. for 4 hours. Luciferase activity was measured using Dual-Glo luciferase assay system (Promega).
The isolated cyclic polypeptide no. 23.15-Fc fusion protein and cyclic polypeptide no. 23.19 were used in a cell-based assay to measure the IC50 values. The stably transfected STAT3-Luc reporter DB cells (0.5×10^6) were cultured in 100 μl of RPMI+10% FBS. The cells were pre-incubated with different concentration of isolated cyclic polypeptide no. 23.15-Fc fusion protein or polypeptide no. 23.19 for 30 minutes at 37° C. 50 ng/ml of IL-23 was added to the cells and incubated at 37° C. for an additional 4 hours. Luciferase activity was measured using Dual-Glo luciferase assay system (Promega). The IC50 values of isolated cyclic polypeptide no. 23.15-Fc fusion protein and cyclic polypeptide no. 23.19 are 2.5 μM and 2.5 μM respectively.
The isolated peptide no. 7 (SEQ ID NO: 156) and peptide no. 23.19 (SEQ ID NO: 130) (it is a cyclic version of the polypeptide no. 23.15) were used in a cell based assay to compare their inhibitory activity. The stably transfected STAT3-Luc reporter DB cells (0.5×10^6) were cultured in 100 μl of RPMI+10% FBS. The cells were pre-incubated with two different concentrations (10 μM and 2 μM) of isolated peptides for 30 minutes at 37° C. 50 ng/ml of IL-23 was added to the cells and incubated at 37° C. for an additional 4 hours. Luciferase activity was measured using Dual-Glo luciferase assay system (Promega). The inhibitory activity of isolated peptide no. 7 (SEQ ID NO: 156) is better than that of peptide no. 23.19 (SEQ ID NO: 130) (a cyclic version of polypeptide no. 23.15 (SEQ ID NO: 126) (See, FIG. 62).
DB cells express IL-23R on the cell surface. In addition, IL-23 stimulated the DB cells through the activation of STAT3 by phosphorylation (p-STAT3) (Example 7 (Figures. 14 and 15)). Based on these observations, DB cells were used to develop a cell-based assay to measure the inhibitory activity of peptide and peptide-Fc fusion protein in the IL-23R pathway. […]
as §3, with “CCS-9028L), which is” for “CCS-9028L),”, “B. The activity of IL-23R pathway can be measured by the transcriptional activity of STAT3 homodimers. […]” for “B.”

[6] = target: T3, Recombinant human IL-23R-Fc (Homo sapiens, UniProt Q5VWK5); test: Competitive ELISA, IL-23 binding to IL-23R; conditions: for inhibition of IL-23 binding to its receptor by modified polypeptides, Competitive ELISA: procedure of Example 6, compared with parent polypeptide; for IC50: human IL-23 / IL-23R-Fc, read-out: IC50, Competitive ELISA
T3 construct: has the protein portion between the 24 amino acid residue to 353 amino acid residue; purchased R&D Systems 1400-IR-050
T3 sequence (Q5VWK5 24-353): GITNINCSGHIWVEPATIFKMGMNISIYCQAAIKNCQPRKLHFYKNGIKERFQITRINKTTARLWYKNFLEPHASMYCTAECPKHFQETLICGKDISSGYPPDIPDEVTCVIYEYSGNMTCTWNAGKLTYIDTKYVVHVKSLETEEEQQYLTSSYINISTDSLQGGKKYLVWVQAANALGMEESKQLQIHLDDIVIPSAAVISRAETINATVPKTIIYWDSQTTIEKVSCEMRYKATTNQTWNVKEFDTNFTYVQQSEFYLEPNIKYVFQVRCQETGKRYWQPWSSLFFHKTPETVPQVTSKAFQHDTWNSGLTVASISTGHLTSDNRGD
Protocol: The novel polypeptides were tested for their ability to inhibit IL-23 using a Competitive ELISA. In such an assay, IL-23R/Fc fusion protein was immobilized on a solid support. In this instance, the solid support was a 96-well plate, but the support may be any support that is typically used for an ELISA. The novel polypeptide and IL-23 were allowed to compete for binding to the immobilized IL-23R/Fc fusion protein. IL-23 that bound to IL-23R-Fc was detected using biotinylated anti-p40 antibody. The bound anti-p40 antibody was detected using streptavidin-horseradish peroxidase (HRP) and a tetramethylbenzidine (TMB) substrate was added to measure peroxidase activity. The color was measured at optical density (OD) 450nm. The color intensity was directly proportional to the amount of the bound IL-23 protein. […] (See, FIG. 16.)
(§4) FIG. 12 is a schematic depiction of the Competitive ELISA. Recombinant human IL-23R-Fc (2 μg/ml) was coated onto microtiter plates as a capture reagent. IL-23 and polypeptides were added to compete for binding to the immobilized IL-23R-Fc. IL-23 that bound to IL-23R-Fc was detected using biotinylated anti-p40 antibody (1:250). The bound anti-p40 antibody was detected using streptavidin-horseradish peroxidase (HRP) (1:500) and 100 μl/well of a tetramethylbenzidine (TMB) substrate was added to measure peroxidase activity. The color was measured at optical density (OD) 450nm. (See, FIG. 12). The color intensity was directly proportional to the amount of the bound IL-23 protein.
as §4, with “Recombinant” for “FIG. 12 is a schematic depiction of the Competitive ELISA. Recombinant”, “IL-23R-Fc. 50 μg human IL-23 (Cat. No. HZ-1048) (Humanzyme, Chicago, Ill.) in the presence or absence of 100 μM peptides was added to the well and incubated at 4° C. overnight.” for “IL-23R-Fc.”, “450nm.” for “450nm. (See, FIG. 12).”

WT: IL-23 cytokine with wild type p19 subunit, expressed in 293T cells
stimulation of STAT3 reporter activity ([1]; 50,000, 5,000, 500 and 50 ng/ml): stimulates the STAT3 activity in a dose-dependent manner

IL-23: heterodimeric cytokine of p19 and p40 subunits; recombinant from Humanzyme
binding to IL-23R deletion protein 1-200 (IL-23R deletion proteins [2]): failed to bind
binding to IL-23R deletion proteins 1-348, 1-318 or 1-250 (IL-23R deletion proteins [3]): detected in the precipitate
increase of reporter luciferase activity ([1]; 50 ng/ml): approximately 10 folds

SGAWWVQYWVQR [1.18]
solubility [4]: insoluble

7HT AA (AMKTWVDYWLETQA; head-to-tail cyclic; listed as Homo sapiens)
inhibitory activity in cell-based DB-Luc assay [5]: did not eliminate the inhibitory activity
inhibition of IL-23 binding to its receptor by modified polypeptides, Competitive ELISA [6]: did not abrogate the polypeptides' ability

CSCC[C@H](NC(=O)[C@H](C)N)C(=O)N[C@H](C(=O)N[C@@H](Cc1c[nH]c2ccccc12)C(=O)N[C@@H](CCC(N)=O)C(=O)N[C@@H](CC(=O)O)C(=O)N[C@@H](Cc1ccc(O)cc1)C(=O)N[C@@H](Cc1c[nH]c2ccccc12)C(=O)N[C@@H](CC(C)C)C(=O)N[C@@H](Cc1ccc(O)cc1)C(=O)NCC(=O)N[C@@H](CCCNC(=N)N)C(=O)O)[C@@H](C)O [23.15]
inhibition of IL-23 binding to its receptor by modified polypeptides, Competitive ELISA [6]: at least as effective

SGASWVQYWVQR [Polypeptide no. 1]
IC50 [6]: 6.25 to 12.5 µM

SGASWVQFWVQR [1.17]
solubility [4]: formed a precipitate

NWATYWQLRHQT [compound 9]
inhibitory activity in Competitive ELISA in relation to polypeptide no. 1 ([6]; 50 μM polypeptide, 30 ng/ml IL-23): significant and better inhibitory activity compared to peptide number 1; also recorded: inhibited IL-23 binding more than polypeptide no. 1
IC50 [6]: ~3 µM

7 CC (CMKTWVDYWLETQC; disulfide 1-14 (inferred); listed as Homo sapiens)
inhibition of IL-23 binding to its receptor by modified polypeptides, Competitive ELISA [6]: did not abrogate the polypeptides' ability

AMTWEDWWLYGR [compound 23]
IC50 [6]: < 1.56 µM

SGASWVQYWWWR [1.21]
solubility [4]: insoluble

ASWVQYWVQ [1.4]
solubility [4]: formed a precipitate

SGWWWVQYWVQR [1.20]
solubility [4]: insoluble

DDWMQYWRQQVR [compound 27]
IC50 [6]: ~1.56 µM
